Literature values, collected in patent publication US20070043208A1, “Crystal structure of erythrocyte binding domain of EBA-175” (priority 2003, published 2007).

System: P. falciparum
Details: DNA plasmid prime and recombinant protein boost regimen

RII: 73 kDa erythrocyte-binding domain (616 amino acid fragment) of P. falciparum EBA-175
monkeys protected from P. falciparum challenge: 3 of 4
